In patent US12383555B2, “Methods of treating cancers” (Foghorn Therapeutics Inc., priority 2020, dated 2025):

Assays:
[1] = test system: MV4;11 human AML tumor cells; experiment: Subcutaneous MV4;11 tumor growth in vivo; parameters: species or system BALB/c Nude mice; settings: 50 mg/kg daily for 21 days, oral route
Description: (§1) Method: BALB/c Nude mice (Beijing Anikeeper Biotech, Beijing) were inoculated subcutaneously on the right flank with the single cell suspension of EOL-1 or MV4;11 human AML tumor cells (1×10^7) in 100 μL IDMD in 10% Fetal Bovine Serum (FBS). When tumor size reach ˜100 mm3, the mice were randomized into either Vehicle group [20% HP-β-CD) or Treatment group: Compound 19 at 50 mg/kg daily for 21 days per oral route. All dose volumes were adjusted by body weights in terms of mg/kg.

[2] = test system: EOL-1 human AML tumor cells; experiment: Subcutaneous EOL-1 tumor growth in vivo; parameters: species or system BALB/c Nude mice; settings: 50 mg/kg daily for 21 days, oral route
Description: as §1

[3] = Tolerability by % body weight change in EOL-1 or MV4;11 tumor-bearing mice; assay type: in vivo; settings: 50 mg/kg daily for 21 days, oral route; MV4;11 and EOL-1 models
Description: as §1

[4] = test system: OCI-AML2 human AML tumor cells; experiment: Subcutaneous OCI-AML2 tumor growth in vivo; parameters: species or system SCID mice; settings: 1.5 mg/kg daily for 21 days, oral route; tumor carries a DNMT3A mutation
Description: (§2) Method: SCID mice (Charles River, Wilmington) were inoculated subcutaneously on the right flank with the single cell suspension of OCI-AML2 human AML tumor cells (1×10^7) in 100 μL in RPMI-1640 media. When tumor size reach ˜100 mm^3, the mice were randomized into either Vehicle group (20% HP-β-CD) or Treatment group (Compound 20 at 1.5 mg/kg daily for 21 days per oral route). All dose volumes were adjusted by body weights in terms of mg/kg.

[5] = Tolerability by % body weight change in OCI-AML2 tumor-bearing mice; assay type: in vivo; settings: 1.5 mg/kg daily for 21 days, oral route
Description: as §2

[6] = test system: AML cell lines (OCIAML5, KASUMI1); experiment: Cancer cell line growth inhibition (Cell-titer glo, GI50, day 3 and day 7), compound 18; assay type: cell-based; settings: compound 18, 0 to 10 micromolar
Description: Procedure: Uveal melanoma cell lines (92-1, MP41, MP38, MP46), prostate cancer cell lines (LNCAP), lung cancer cell lines (NCIH1299), and immortalized embryonic kidney lines (HEK293T) were plated into 96 well plates with growth media (see Table 1). […] Cells were incubated at 37° C. for 3 days. After 3 days of treatment, the media was removed from the cells, and 30 microliters of TrypLE (Gibco) was added to cells for 10 minutes. Cells were detached from the plates and resuspended with the addition of 170 microliters of growth media. Cells from two DMSO-treated control wells were counted, and the initial number of cells plated at the start of the experiment, were re-plated into fresh-compound containing plates for an additional four days at 37° C. At day 7, cells were harvested as described above.
On day 3 and day 7, relative cell growth was measured by the addition of Cell-titer glo (Promega), and luminescence was measured on an Envision plate reader (Perkin Elmer).
At the time of cell splitting on days 3 and 7, cells were split into new 96 well plates, and fresh compound was added four hours after re-plating.
Procedure: All cell lines described above in Example 2 were also tested as described above with compound 18. In addition, the following cell lines were also tested as follows. […]

[7] = test system: AML cell lines (OCIAML5); experiment: Cancer cell line growth inhibition (Cell-titer glo, GI50, day 3 and day 7), compound 17; assay type: cell-based; settings: compound 17, 0 to 10 micromolar

Structure (SMILES): C[C@@H]1CN(c2cccc(-c3csc(NC(=O)CNC(=O)c4ccn(C(C)(C)C)c4)n3)n2)C[C@H](C)O1 [Compound 19, 1-(tert-butyl)-N-(2-((4-(6-(cis-2,6-dimethylmorpholino)pyridin-2-yl)thiazol-2-yl)amino)-2-oxoethyl)-1H-pyrrole-3-carboxamide]
- Effect on MV4;11 tumor growth (FIG. 4) [1]: tumor stasis
- Effect on EOL-1 tumor growth (FIG. 5) [2]: delayed the growth
- Tolerability based on % body weight change [3]: well tolerated

Structure (SMILES): COC[C@H](NC(=O)c1ccn(S(C)(=O)=O)c1)C(=O)Nc1nc(-c2cccc(N3C[C@@H](C)O[C@@H](C)C3)n2)cs1 [Compound 20, N—((S)-1-((4-(6-(cis-2,6-dimethylmorpholino)pyridin-2-yl)thiazol-2-yl)amino)-3-methoxy-1-oxopropan-2-yl)-1-(methylsulfonyl)-1H-pyrrole-3-carboxamide]
- Effect on OCI-AML2 tumor growth (FIG. 6) [4]: inhibited the growth
- Tolerability based on % body weight change [5]: well tolerated

Structure (SMILES): CSCC[C@H](NC(=O)c1ccn(S(C)(=O)=O)c1)C(=O)Nc1nc(-c2cccc(-c3ccncc3)c2)cs1 [Compound 18, (S)-1-(methylsulfonyl)-N-(4-(methylthio)-1-oxo-1-((4-(3-(pyridin-4-yl)phenyl)thiazol-2-yl)amino)butan-2-yl)-1H-pyrrole-3-carboxamide]
- Duration of inhibition of the AML cell lines (FIG. 2) [6]: maintained through day 7
- Sensitivity of the AML cell lines relative to the other tested cell lines (GI50, FIG. 2) ([6]; day 3 and day 7): more sensitive to BRG1/BRM inhibition than the other tested cell lines

Structure (SMILES): CSCC[C@H](NC(=O)c1ccc(N)cc1)C(=O)Nc1nc(-c2cccc(-c3ccncc3)c2)cs1 [Compound 17, 4-amino-N-[(1S)-3-methylsulfanyl-1-[[4-[3-(4-pyridyl)phenyl]thiazol-2-yl]carbamoyl]propyl]benzamide]
- Duration of inhibition of the AML cell lines (FIG. 1) [7]: maintained through day 7
